pIC50: −log10 of the molar value.
Target: T1, CDK8 (CDK8/CycC) (Homo sapiens, UniProt P49336)
T1 construct: purchased Invitrogen PV4402
Assay: FRET based Lanthascreen binding competition assay
Conditions: 5 nM CDK8/CycC, 10 nM Alexa647-Tracer, 1% DMSO, 60 min at RT; read-out: IC50 CDK8 binding
Experimental: FRET based Lanthascreen binding competition assay: A dye-labeled ATP competitive probe served as a FRET acceptor upon binding to CDK8 labeled with a strepavidin —Eu-chelate (via abiotinylated anti His antibody). […] In case this probe was competed by an inhibitor as such a signal cannot be generated any more. The CDK8 used for this assay was a protein co-expressed with CycC.
The assay procedure for an assay in a 1536 well plate was performed according to the following: 2 μL CDK8/biotin-anti-His Ab/SA-Eu mix in Assay buffer were pipetted into the wells of a micro plate.
1 μL compound in 20 mM Hepes buffer/5% DMSO was added. The plate was shaken for 30 sec and incubated for 20 min at RT. 2 μL Alexa647-probe in assay buffer were added. The plate was shaken for 30 sec again and incubated for 60 min at RT in the dark. Then the plate was read out on a Perkin Elmer Envision (mode LANCE/TRF, excitation 340 nm emission 650 nm).

T1 sequence (P49336 whole entry): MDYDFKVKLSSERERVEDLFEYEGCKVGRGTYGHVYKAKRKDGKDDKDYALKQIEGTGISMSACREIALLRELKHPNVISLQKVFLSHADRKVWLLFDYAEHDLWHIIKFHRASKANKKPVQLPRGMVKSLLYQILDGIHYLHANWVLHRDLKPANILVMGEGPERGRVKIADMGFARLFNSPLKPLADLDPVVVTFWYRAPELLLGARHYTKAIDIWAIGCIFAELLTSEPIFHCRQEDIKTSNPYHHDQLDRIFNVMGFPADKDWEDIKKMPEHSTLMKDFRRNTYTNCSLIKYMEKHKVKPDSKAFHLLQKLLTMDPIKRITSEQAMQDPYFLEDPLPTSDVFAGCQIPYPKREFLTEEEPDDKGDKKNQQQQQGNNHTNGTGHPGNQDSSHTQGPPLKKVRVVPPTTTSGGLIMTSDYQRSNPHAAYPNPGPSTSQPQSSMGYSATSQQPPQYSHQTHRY
T1 sequence (P24863 whole entry partner): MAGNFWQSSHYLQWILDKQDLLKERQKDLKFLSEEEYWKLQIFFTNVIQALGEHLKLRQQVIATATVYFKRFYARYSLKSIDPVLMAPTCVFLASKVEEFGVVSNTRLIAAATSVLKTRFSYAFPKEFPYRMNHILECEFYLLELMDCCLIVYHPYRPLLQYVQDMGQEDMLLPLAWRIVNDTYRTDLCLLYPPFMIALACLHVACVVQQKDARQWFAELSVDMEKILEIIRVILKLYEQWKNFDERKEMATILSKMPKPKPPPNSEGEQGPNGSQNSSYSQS

| SMILES | pIC50 |
| --- | --- |
| C[C@H](NC(=O)c1ccc2cncc(-c3ccc(-c4cnn(C)c4)cc3)c2n1)c1ccccc1 [Compound 27, (S)-8-(4-(1-methyl-1H-pyrazol-4-yl)phenyl)-N-(1-phenylethyl)-1,6-naphthyridine-2-carboxamide] | > 8.00 |
| Cc1cnc(N)c2ccc(C(=O)N3CCC[C@H]3c3ccc(Cl)cc3)nc12 [Compound 88, (S)-(5-amino-8-methyl-1,6-naphthyridin-2-yl)(2-(4-chlorophenyl)pyrrolidin-1-yl)methanone] | 7.00 to 8.00 |
| COC1CN(C(=O)c2ccc3cncc(-c4ccc5c(cnn5CC(C)(C)O)c4)c3c2)C1 [Compound 132, (4-(1-(2-hydroxy-2-methylpropyl)-1H-indazol-5-yl)isoquinolin-6-yl)(3-methoxyazetidin-1-yl)methanone] | 6.30 to 7.00 |
| Cn1cc(-c2ccc(-c3cncc4ccc(NS(=O)(=O)N5CCC5)cc34)cc2)cn1 [Compound 169, Azetidine-1-sulfonic acid {4-[4-(1-methyl-1H-pyrazol-4-yl)-phenyl]-isoquinolin-6-yl}-amide] | > 8.00 |
| CN(CCO)C(=O)c1ccc2cncc(-c3ccc4c(c3)CS(=O)(=O)N4)c2n1 [Compound 45, 8-(2,2-Dioxo-2,3-dihydro-1H-benzo[c]isothiazol-5-yl)-[1,6]naphthyridine-2-carboxylic acid (2-hydroxy-ethyl)-methyl-amide] | 7.00 to 8.00 |
| Cn1cc(-c2ccc(-c3cncc4ccc(C(=O)N5CCC[C@H]5c5ccc(Cl)cc5)nc34)cc2)cn1 [Compound 67, (S)-(2-(4-chlorophenyl)pyrrolidin-1-yl)(8-(4-(1-methyl-1H-pyrazol-4-yl)phenyl)-1,6-naphthyridin-2-yl)methanone] | 6.30 to 7.00 |
| CNCc1ccc2cncc(-c3ccc4c(c3)CS(=O)(=O)N4C)c2n1 [Compound 53, Methyl-[8-(1-methyl-2,2-dioxo-2,3-dihydro-1H-benzo[c]isothiazol-5-yl)-[1,6]naphthyridin-2-ylmethyl]-amine] | 7.00 to 8.00 |
| Cn1cc(-c2ccc(-c3cncc4ccc(N5CCCCC5=O)cc34)cc2)cn1 [Compound 127, 1-{4-[4-(1-Methyl-1H-pyrazol-4-yl)-phenyl]-isoquinolin-6-yl}-piperidin-2-one] | 6.00 to 6.30 |
| COC1CN(C(=O)c2ccc3cncc(-c4ccc(-c5cc(C(F)(F)F)nn5C)cc4)c3n2)C1 [Compound 57, (3-methoxyazetidin-1-yl)(8-(4-(1-methyl-3-(trifluoromethyl)-1H-pyrazol-5-yl)phenyl)-1,6-naphthyridin-2-yl)methanone] | 6.30 to 7.00 |
| COC1CN(C(=O)c2ccc3cncc(-c4ccc5c(c4)CCC(=O)N5C)c3c2)C1 [Compound 155, 6-[6-(3-Methoxy-azetidine-1-carbonyl)-isoquinolin-4-yl]-1-methyl-3,4-dihydro-1H-quinolin-2-one] | 7.00 to 8.00 |
| CN1C(=O)Cc2cc(-c3cncc4ccc(C(=O)N5CC(F)(F)C5)cc34)ccc21 [Compound 170, 5-[6-(3,3-Difluoro-azetidine-1-carbonyl)-isoquinolin-4-yl]-1-methyl-1,3-dihydro-indol-2-one] | 7.00 to 8.00 |
| Cn1cc(-c2ccc(-c3cncc4ccc(NS(=O)(=O)C5(C)CC5)cc34)cc2)cn1 [Compound 168, 1-Methyl-cyclopropanesulfonic acid {4-[4-(1-methyl-1H-pyrazol-4-yl)-phenyl]-isoquinolin-6-yl}-amide] | > 8.00 |
| COCC(=O)Nc1ccc2cncc(-c3ccc(-c4cnn(C)c4)cc3)c2c1 [Compound 121, 2-Methoxy-N-{4-[4-(1-methyl-1H-pyrazol-4-yl)-phenyl]-isoquinolin-6-yl}-acetamide] | 7.00 to 8.00 |
| Cn1cc(-c2ccc(-c3cncc4ccc(N5CCCCS5(=O)=O)cc34)cc2)cn1 [Compound 110, 6-(1,1-Dioxo-[1,2]thiazinan-2-yl)-4-[4-(1-methyl-1H-pyrazol-4-yl)-phenyl]-isoquinoline] | 7.00 to 8.00 |
| COC1CN(C(=O)c2ccc3cncc(-c4ccc(-c5cn(C)nc5C(F)(F)F)cc4)c3n2)C1 [Compound 49, (3-methoxyazetidin-1-yl)(8-(4-(1-methyl-3-(trifluoromethyl)-1H-pyrazol-4-yl)phenyl)-1,6-naphthyridin-2-yl)methanone] | 7.00 to 8.00 |
| CN1c2ccc(-c3cncc4ccc(-c5ncco5)cc34)cc2CS1(=O)=O [Compound 107, 1-methyl-5-(6-(oxazol-2-yl)isoquinolin-4-yl)-1,3-dihydrobenzo[c]isothiazole 2,2-dioxide] | 7.00 to 8.00 |
| Cc1cncc2ccc(C(=O)N[C@@H](C)c3ccccc3)nc12 [Compound 62, (S)-8-methyl-N-(1-phenylethyl)-1,6-naphthyridine-2-carboxamide] | 6.30 to 7.00 |
| Cn1cc(-c2ccc(-c3cncc4ccc(-c5nnn(C)n5)cc34)cc2)cn1 [Compound 117, 4-(4-(1-methyl-1H-pyrazol-4-yl)phenyl)-6-(2-methyl-2H-tetrazol-5-yl)isoquinoline] | 7.00 to 8.00 |

| SMILES | pIC50 |
| --- | --- |
| CN1c2ccc(-c3cncc4ccc(C(=O)NCCN)nc34)cc2CS1(=O)=O [Compound 16, 8-(1-Methyl-2,2-dioxo-2,3-dihydro-1H-benzo[c]isothiazol-5-yl)-[1,6]naphthyridine-2-carboxylic acid (2-amino-ethyl)-amide] | > 8.00 |
| O=C(c1ccc2cncc(Br)c2n1)N1CCC[C@H]1c1ccc(Br)cc1 [Compound 89, (S)-(8-bromo-1,6-naphthyridin-2-yl)(2-(4-bromophenyl)pyrrolidin-1-yl)methanone] | 7.00 to 8.00 |
| COC1(C)CN(C(=O)c2ccc3cncc(-c4ccc(-c5cnn(C)c5)cc4)c3c2)C1 [Compound 185] | 7.00 to 8.00 |
| CN1c2ccc(-c3cncc4ccc(-c5nccn5C)cc34)cc2CS1(=O)=O [Compound 93, 1-methyl-5-(6-(1-methyl-1H-imidazol-2-yl)isoquinolin-4-yl)-1,3-dihydrobenzo[c]isothiazole 2,2-dioxide] | > 8.00 |
| Cn1cc(-c2ccc(-c3cncc4ccc(NS(C)(=O)=O)nc34)cc2)cn1 [Compound 2, N-(8-(4-(1-Methyl-1H-pyrazol-4-yl)phenyl)-1,6-naphthyridin-2-yl)methanesulfonamide] | > 8.00 |
| O=C(c1ccc2cnccc2n1)N1CCC[C@H]1c1ccc(Cl)cc1 [Compound 37, (S)-(2-(4-chlorophenyl)pyrrolidin-1-yl)(1,6-naphthyridin-2-yl)methanone] | > 8.00 |
| Cc1cncc2ccc(C(=O)N[C@H](C)c3ccccc3)nc12 [Compound 36, (R)-8-methyl-N-(1-phenylethyl)-1,6-naphthyridine-2-carboxamide] | > 8.00 |
| COC1CN(C(=O)c2ccc3cncc(-c4ccc5c(cnn5C)c4)c3n2)C1 [Compound 22, (3-methoxyazetidin-1-yl)(8-(1-methyl-1H-indazol-5-yl)-1,6-naphthyridin-2-yl)methanone] | > 8.00 |
| O=C1Cc2ccc(-c3cncc4ccc(C(=O)N5CC(F)(F)C5)cc34)cc2N1 [Compound 146, 6-(6-(3,3-difluoroazetidine-1-carbonyl)isoquinolin-4-yl)indolin-2-one] | 7.00 to 8.00 |
| Cc1cc2cncc(-c3ccc4c(c3)CS(=O)(=O)N4C)c2nc1C(=O)N1CCC(F)(F)C1 [Compound 41, (3,3-Difluoro-pyrrolidin-1-yl)-[3-methyl-8-(1-methyl-2,2-dioxo-2,3-dihydro-1H-benzo[c]isothiazol-5-yl)-[1,6]naphthyridin-2-yl]-methanone] | 7.00 to 8.00 |
| O=C(c1ccc2cnccc2c1)N1CCC[C@H]1c1ccc(Cl)cc1 [Compound 113, (S)-(2-(4-chlorophenyl)pyrrolidin-1-yl)(isoquinolin-6-yl)methanone] | 7.00 to 8.00 |
| CN1C(=O)CCc2cc(-c3cnc(N)c4ccc(C(=O)N5CC(F)(F)C5)cc34)ccc21 [Compound 172, 6-[1-Amino-6-(3,3-difluoro-azetidine-1-carbonyl)-isoquinolin-4-yl]-1-methyl-3,4-dihydro-1H-quinolin-2-one] | 6.30 to 7.00 |
| Cn1cc(-c2ccc(-c3c(Cl)ncc4ccc(C(N)=O)nc34)cc2)cn1 [Compound 66, 7-Chloro-8-(4-(1-methyl-1H-pyrazol-4-yl)phenyl)-1,6-naphthyridine-2-carboxamide] | 6.30 to 7.00 |
| COC1CN(C(=O)c2ccc3cncc(-c4ccc(-c5cnn(CC(C)(C)O)c5)cc4)c3n2)C1 [Compound 31, (8-(4-(1-(2-hydroxy-2-methylpropyl)-1H-pyrazol-4-yl)phenyl)-1,6-naphthyridin-2-yl)(3-methoxyazetidin-1-yl)methanone] | > 8.00 |
| CNC(=O)c1ccc2c(N)ncc(-c3ccc4c(c3)CS(=O)(=O)N4C)c2n1 [Compound 32, 5-Amino-8-(1-methyl-2,2-dioxo-2,3-dihydro-1H-benzo[c]isothiazol-5-yl)-[1,6]naphthyridine-2-carboxylic acid methylamide] | > 8.00 |
| Cn1cc(-c2ccc(-c3cncc4ccc(N5CCNCC5)nc34)cc2)cn1 [Compound 72, 8-(4-(1-methyl-1H-pyrazol-4-yl)phenyl)-2-(piperazin-1-yl)-1,6-naphthyridine] | 6.00 to 6.30 |
| CC(=O)NC(=O)c1ccc2cncc(-c3ccc(-c4cnn(C)c4)cc3)c2n1 [Compound 9, 8-[4-(1-Methyl-1H-pyrazol-4-yl)-phenyl]-[1,6]naphthyridine-2-carboxylic acid acetyl-amide] | > 8.00 |
| Cn1cc(-c2ccc(-c3cncc4ccc(NS(C)(=O)=O)cc34)cc2)cn1 [Compound 98, N-{4-[4-(1-Methyl-1H-pyrazol-4-yl)-phenyl]-isoquinolin-6-yl}-methanesulfonamide] | > 8.00 |
